Measured values: patent publication US20250302834A1, “N-ALKYL-2-SUBSTITUTED ATP ANALOGUES FOR USE AS ANTIBACTERIAL AGENT” (UNIVERSITÉ DE LIÈGE, priority 2022, published 2025)

Legend:
[1] = general statement, no test described; cited from earlier work
[2] = test system: methicillin-resistant JE2 (USA300) Staphylococcus aureus strain; experiment: Haemolytic activity of culture supernatant on human red blood cells, JE2 strain; type: cell-based; conditions: JE2 (USA300) grown with 1 μg/mL up to stationary phase; supernatant on red blood cells 30 minutes
Procedure: (§1) Staphylococcus aureus strains included previously characterized infective endocarditis (IE) clinical isolate (Liesenborghs L, Meyers S, Lox M, Criel M, Claes J, Peetermans M, Trenson S, Vande Velde G, Vanden Berghe P, Baatsen P, et al. Staphylococcus aureus endocarditis: distinct mechanisms of bacterial adhesion to damaged and inflamed heart valves. Eur Heart J 2019; 40:3248-3259) or JE2 (USA300 MRSA). Bacteria were grown in Tryptic soy broth (TSB, Sigma) under agitation (200 rpm) at 37° C. Prior to all experiments, a single colony from TSA plates was used to inoculate 4 mL of TSB in 15-mL polystyrene tubes and bacteria were grown overnight. Liquid cultures were then diluted 100-fold in 20 mL of fresh TSB and aliquoted in new tubes. For tetrasodium cangrelor treatment, different concentrations of the drug were added to the corresponding tubes. Tetrasodium cangrelor was dissolved in the culture medium, i.e. Tryptic soy broth which comprises proteins and nutrients for growing bacteria, more particularly: casein, soya peptone, sodium chloride, dipotassium phosphate, dextrose, water. […]
(§2) Freshly drawn citrate anticoagulated blood from healthy volunteers was centrifugated for 15 minutes at 1,000×g. […] Haemolytic activity was determined in supernatants by measuring the absorbance at 570 nm in a spectrophotometer. […]

[3] = test system: Staphylococcus aureus IE clinical isolate; experiment: Staphyloxanthin production, IE strain; type: cell-based; conditions: IE strain grown with 0.5 μg/mL up to exponential phase (FIG. 3)
Procedure: as §1
(§3) Bacteria pellets from overnight culture were resuspended in 400 μL methanol and incubated for 30 minutes at 37° C. under gentle agitation on a table shaker. […] Pigment intensity in supernatants was analyzed by measuring the absorbance at 470 nm. […]

JE2 S. aureus [4] = experiment: Staphyloxanthin production, JE2 strain; type: cell-based, Staphylococcus aureus; conditions: 1.0 μg/ml (FIG. 4)
Procedure: as §1, §3

JE2 S. aureus [5] = experiment: Bacterial adhesion to Von Willebrand factor under flow; type: cell-based, Staphylococcus aureus; conditions: JE2 grown with 1 μg/ml; shear rate 1000 s^-1 for 10 minutes (FIG. 5)
Procedure: Staphylococcus aureus JE2 (USA300 MRSA) in exponential growth phase, non-treated or treated with cangrelor at 1 μg/ml were stained with 30 μg/ml 5(6)-Carboxyfluorescein N-hydroxysuccinimide ester (Sigma-Aldrich) in phosphate-buffered saline (PBS) for 30 minutes at room temperature on a shaker. After incubation, bacteria were centrifuged for 5 minutes at 14,000×g and the supernatant was removed. Next, a washing step was performed by resuspending the bacteria in PBS and removing PBS after centrifugation (5 minutes at 14,000×g). The bacterial pellet was then resuspended in 100 μl of 6% bovine serum albumin (BSA). The stained bacteria were kept on ice until further use in the Von Willebrand factor (VWF) adhesion assay and fibrinogen (Fg) adhesion assay. […]
After perfusion, the coverslip was removed from the system and washed with PBS, followed by a fixation step with 4% paraformaldehyde (PFA, miliporefore, Merck) for 10 minutes. […] Confocal microscopy was performed at a 40× magnification and fluorescence intensity was measured with QuPath software (Bankhead, P. et al. QuPath: Open source software for digital pathology image analysis. Sci. Rep. 7, 1-7 (2017)). A quantification of bacteria adhesion to VWF was determined by determining the percentage of positive pixels, corresponding to the fluorescent signal and bacterial adhesion.

JE2 S. aureus [6] = experiment: Bacterial adhesion to fibrinogen; type: cell-based, Staphylococcus aureus; conditions: JE2 grown with 1 μg/ml (FIG. 6)
Procedure: Staphylococcus aureus JE2 (USA300 MRSA) in exponential growth phase, non-treated or treated with cangrelor at 1 μg/ml were stained with 30 μg/ml 5(6)-Carboxyfluorescein N-hydroxysuccinimide ester (Sigma-Aldrich) in phosphate-buffered saline (PBS) for 30 minutes at room temperature on a shaker. After incubation, bacteria were centrifuged for 5 minutes at 14,000×g and the supernatant was removed. Next, a washing step was performed by resuspending the bacteria in PBS and removing PBS after centrifugation (5 minutes at 14,000×g). The bacterial pellet was then resuspended in 100 μl of 6% bovine serum albumin (BSA). The stained bacteria were kept on ice until further use in the Von Willebrand factor (VWF) adhesion assay and fibrinogen (Fg) adhesion assay.
96-well plates (cellstar, greiner) were coated with human plasma fibrinogen (Fg, Merck) for 24 hours at room temperature, followed by a washing step with PBS. Next, a blocking step with 2% BSA for 1 hour was done followed by a wash step with PBS. Labelled bacteria in exponential phase were then diluted in TSB medium to obtain 10^9 CFU/ml of labelled bacteria. […] Bacterial adhesion was then quantified using a spectrophotometer (multi-mode microplate reader FilterMax F5, molecular devices) Ex.:485 nm and em.:535 nm, a surface scan of the wells was performed. […]

JE2 S. aureus [7] = experiment: Bacterial growth curve; type: cell-based, Staphylococcus aureus; conditions: 1 μg/ml, 20 μg/ml and 40 μg/ml, 7 hours, OD 595 nm (FIG. 7)
Procedure: (§4) A bacterial growth curve and metabolic activity profile was obtained of exponential phase JE2 bacteria following treatment with different concentrations of cangrelor 1 μg/ml, 20 μg/ml and 40 μg/ml. The bacterial growth curve was obtained via a kinetic reading using a spectrophotometer, reading every 10 minutes for 7 hours at an optical density of 595 nm with continuous shaking. The metabolic activity profile was obtained using a Calscreener™ (Symcel), which measures the metabolic response over time (15 hours) in presence of the different concentrations of cangrelor. […] While cangrelor cannot inhibit the bacterial growth of JE2, it can inhibit virulence factors production by this strain upon treatment using a clinically relevant dose of 1 μg/ml.

JE2 S. aureus [8] = experiment: Bacterial metabolic activity (Calscreener); type: cell-based, Staphylococcus aureus; conditions: 1 μg/ml, 20 μg/ml and 40 μg/ml, 15 hours (FIG. 8)
Procedure: as §4

[9] = test system: Staphylococcus aureus IE clinical isolate; experiment: Haemolytic activity of culture supernatant on human red blood cells, IE strain; type: cell-based; conditions: IE strain grown with 0.5 μg/mL up to exponential phase; supernatant on red blood cells 30 minutes
Procedure: as §1, §2

[10] = intravenous bolus (30 μg/kg) followed by 4-μg/kg/min infusion; cited from earlier work

With `CCCSc1nc(N[C@@H]2C[C@H]2c2ccc(F)c(F)c2)c2nnn([C@@H]3C[C@H](OCCO)[C@@H](O)[C@H]3O)c2n1` [Ticagrelor] as the compound, how does the “solubility in an aqueous environment or medium” value [1] read?
Its value is “generally not soluble”.

Which results are given for `CSCCNc1nc(SCCC(F)(F)F)nc2c1ncn2[C@@H]1O[C@H](COP(=O)(O)OP(=O)(O)C(Cl)(Cl)P(=O)(O)O)[C@@H](O)[C@H]1O` [cangrelor]?
loss of supernatant haemolytic activity as compared to vehicle control (set to 100%) [2]: complete loss; loss of bacteria staphyloxanthin production as compared to vehicle control (set to 100%) [3]: 90%; loss of bacteria staphyloxanthin production as compared to vehicle control (set to 100%) (JE2 S. aureus [4]): 90%; bacterial adhesion to Von Willebrand factor under flow as compared to vehicle control (JE2 S. aureus [5]): reduction; bacterial adhesion to fibrinogen as compared to vehicle control (JE2 S. aureus [6]): reduction; bacterial growth (AUC of growth curve) as compared to vehicle control (JE2 S. aureus [7]): could not affect; bacterial metabolic activity as compared to vehicle control (JE2 S. aureus [8]): could not affect

With `CSCCNc1nc(SCCC(F)(F)F)nc2c1ncn2[C@@H]1O[C@H](COP(=O)(O)OP(=O)(O)C(Cl)(Cl)P(=O)(O)O)C(O)C1O` (stereo partly shown) [tetrasodium cangrelor] as the compound, how does the “loss of supernatant haemolytic activity as compared to vehicle control (set to 100%)” value [9] read?
Its value is 90%.

And the “steady state concentration of the drug reached in patient” value [10]?
Its value is 0.5 µg/mL.
